Source: patent US12435059B2, “AMP-activated protein kinase inhibitors and methods of making and using the same” (The Regents of the University of Colorado, priority 2019, dated 2025)
Like-named read-outs stand apart in the source and are kept apart here.

Columns and labels:
Assay in all cases: biochemical
Type in all cases: binding
468 kinases [1] = target: 468 kinases (Homo sapiens, UniProt P29323); conditions: EPHB2; read-out: % Inhibition @ 100 nM
468 kinases [2] = target: 468 kinases (Homo sapiens, UniProt P42345); conditions: MTOR; read-out: % Inhibition @ 100 nM
468 kinases [3] = target: 468 kinases (Homo sapiens, UniProt P04049); conditions: RAF1; read-out: % Inhibition @ 100 nM
468 kinases [4] = target: 468 kinases (Homo sapiens, UniProt Q8NG66); conditions: NEK11; read-out: % Inhibition @ 100 nM
468 kinases [5] = target: 468 kinases (Homo sapiens, UniProt P00533, DEL752-759); conditions: EGFR(S752-1759del); read-out: % Inhibition @ 100 nM
468 kinases [6] = target: 468 kinases (Homo sapiens, UniProt P00519, F317L); conditions: read-out: % Inhibition @ 100 nM
468 kinases [7] = target: 468 kinases (Mycobacterium tuberculosis, UniProt P9WI81); conditions: PKNB(M.tuberculosis); read-out: % Inhibition @ 100 nM
468 kinases [8] = target: 468 kinases (Homo sapiens, UniProt O75582); conditions: read-out: % Inhibition @ 100 nM
468 kinases [9] = target: 468 kinases (Homo sapiens, UniProt O15530); conditions: PDPK1; read-out: % Inhibition @ 100 nM
468 kinases [10] = target: 468 kinases (Homo sapiens, UniProt P21860); conditions: ERBB3; read-out: % Inhibition @ 100 nM
468 kinases [11] = target: 468 kinases (Homo sapiens, UniProt P15056, V600E); conditions: BRAF(V600E); read-out: % Inhibition @ 100 nM
468 kinases [12] = target: 468 kinases (Homo sapiens, UniProt Q8NI60); conditions: ADCK3; read-out: % Inhibition @ 100 nM
468 kinases [13] = target: 468 kinases (Homo sapiens, UniProt P06213); conditions: INSR; read-out: % Inhibition @ 100 nM
468 kinases [14] = target: 468 kinases (Homo sapiens, UniProt P50613); conditions: CDK7; read-out: % Inhibition @ 100 nM
468 kinases [15] = target: 468 kinases (Homo sapiens, UniProt Q2M2I8); conditions: AAK1; read-out: % Inhibition @ 100 nM
468 kinases [16] = target: 468 kinases (Homo sapiens, UniProt Q6ZN16); conditions: MAP3K15; read-out: % Inhibition @ 100 nM
468 kinases [17] = target: 468 kinases (Homo sapiens, UniProt O75385); conditions: ULK1; read-out: % Inhibition @ 100 nM
468 kinases [18] = target: 468 kinases (Homo sapiens, UniProt P52333); conditions: JAK3 (JH1domain-catalytic); read-out: % Inhibition @ 100 nM
468 kinases [19] = target: 468 kinases (Homo sapiens, UniProt Q9NRM7); conditions: LATS2; read-out: % Inhibition @ 100 nM
468 kinases [20] = target: 468 kinases (Homo sapiens, UniProt P14616); conditions: INSRR; read-out: % Inhibition @ 100 nM
468 kinases [21] = target: 468 kinases (Homo sapiens, UniProt P43403); conditions: ZAP70; read-out: % Inhibition @ 100 nM
468 kinases [22] = target: 468 kinases (Homo sapiens, UniProt Q96SB4); conditions: SRPK1; read-out: % Inhibition @ 100 nM
468 kinases [23] = target: 468 kinases (Homo sapiens, UniProt P25098); conditions: GRK2; read-out: % Inhibition @ 100 nM
468 kinases [24] = target: 468 kinases (Homo sapiens, UniProt P42684); conditions: ABL2; read-out: % Inhibition @ 100 nM
468 kinases [25] = target: 468 kinases (Homo sapiens, UniProt Q04771); conditions: ACVR1; read-out: % Inhibition @ 100 nM
468 kinases [26] = target: 468 kinases (Homo sapiens, UniProt O00141); conditions: SGK; read-out: % Inhibition @ 100 nM
468 kinases [27] = target: 468 kinases (Homo sapiens, UniProt Q9Y4K4); conditions: MAP4K5; read-out: % Inhibition @ 100 nM
468 kinases [28] = target: 468 kinases (Homo sapiens, UniProt P09619); conditions: PDGFRB; read-out: % Inhibition @ 100 nM
468 kinases [29] = target: 468 kinases (Homo sapiens, UniProt Q8IYT8); conditions: ULK2; read-out: % Inhibition @ 100 nM
468 kinases [30] = target: 468 kinases (Homo sapiens, UniProt Q96NX5); conditions: CAMK1G; read-out: % Inhibition @ 100 nM
468 kinases [31] = target: 468 kinases (Homo sapiens, UniProt Q9BRS2); conditions: RIOK1; read-out: % Inhibition @ 100 nM
468 kinases [32] = target: 468 kinases (Homo sapiens, UniProt Q8WTQ7); conditions: GRK7; read-out: % Inhibition @ 100 nM

Compound | inhibition at 0.1 µM (468 kinases [1]) | inhibition at 0.1 µM (468 kinases [2]) | inhibition at 0.1 µM (468 kinases [3]) | inhibition at 0.1 µM (468 kinases [4]) | inhibition at 0.1 µM (468 kinases [5]) | inhibition at 0.1 µM (468 kinases [6]; ABL1 (F317L)-phosphorylated) | inhibition at 0.1 µM (468 kinases [7]) | inhibition at 0.1 µM (468 kinases [8]; RPS6KA5(Kin.Dom.1-N-terminal)) | inhibition at 0.1 µM (468 kinases [8]; RPS6KA5(Kin.Dom.2-C-terminal)) | inhibition at 0.1 µM (468 kinases [9]) | inhibition at 0.1 µM (468 kinases [10]) | inhibition at 0.1 µM (468 kinases [11]) | inhibition at 0.1 µM (468 kinases [12]) | inhibition at 0.1 µM (468 kinases [13]) | inhibition at 0.1 µM (468 kinases [14]) | inhibition at 0.1 µM (468 kinases [15]) | inhibition at 0.1 µM (468 kinases [16]) | inhibition at 0.1 µM (468 kinases [17]) | inhibition at 0.1 µM (468 kinases [18]) | inhibition at 0.1 µM (468 kinases [19]) | further results
CCN(CC)CCNC(=O)c1c(C)[nH]c(/C=C2\C(=O)Nc3ccc(CCC(N)=O)cc32)c1C [Compound No. 16, (Z)-5-((5-(3-Amino-3-oxopropyl)-2-oxoindolin-3-ylidene)methyl)-N-(2-(diethylamino)ethyl)-2,4-dimethyl-1H-pyrrole-3-carboxamide] | 10% | 6% | 0% | 36% | 19% | 20% | 16% | 0% | 17% | 3% | 11% | 0% | 8% | 25% | 80% | 89% | 71% | 56% | 48% | 13% | inhibition at 0.1 µM (468 kinases [20]): 10%; inhibition at 0.1 µM (468 kinases [21]): 60%; inhibition at 0.1 µM (468 kinases [22]): 78%; inhibition at 0.1 µM (468 kinases [23]): 48%; inhibition at 0.1 µM (468 kinases [24]): 3%; inhibition at 0.1 µM (468 kinases [25]): 18%; inhibition at 0.1 µM (468 kinases [26]): 47%; inhibition at 0.1 µM (468 kinases [27]): 53%; inhibition at 0.1 µM (468 kinases [28]): 61%; inhibition at 0.1 µM (468 kinases [29]): 82%; inhibition at 0.1 µM (468 kinases [30]): 37%; inhibition at 0.1 µM (468 kinases [31]): 87%; inhibition at 0.1 µM (468 kinases [32]): 76%
CCN(CC)CCNC(=O)c1c(C)[nH]c(/C=C2\C(=O)Nc3ccc(CCO)cc32)c1C [Compound No. 10, (Z)—N-(2-(Diethylamino)ethyl)-5-((5-(2-hydroxyethyl)-2-oxoindolin-3-ylidene)methyl)-2,4-dimethyl-1H-pyrrole-3-carboxamide] | 3% | 0% | 9% | 0% | 14% | 22% | 0% | 11% | 0% | 11% | 14% | 3% | 8% | 0% | 86% | 88% | 0% | 58% | 17% | 4% | inhibition at 0.1 µM (468 kinases [6]; ABL1 (F317L)-nonphosphorylated): 6%; inhibition at 0.1 µM (468 kinases [20]): 1%; inhibition at 0.1 µM (468 kinases [21]): 6%; inhibition at 0.1 µM (468 kinases [22]): 60%; inhibition at 0.1 µM (468 kinases [23]): 0%; inhibition at 0.1 µM (468 kinases [24]): 0%; inhibition at 0.1 µM (468 kinases [25]): 0%; inhibition at 0.1 µM (468 kinases [26]): 2%; inhibition at 0.1 µM (468 kinases [27]): 52%; inhibition at 0.1 µM (468 kinases [28]): 99.3%; inhibition at 0.1 µM (468 kinases [29]): 71%; inhibition at 0.1 µM (468 kinases [30]): 0%; inhibition at 0.1 µM (468 kinases [31]): 88%; inhibition at 0.1 µM (468 kinases [32]): 40%
